Assay results reported in publication PMC12615753, “Glutathione as a taste modulator: molecular mechanisms of interaction with umami and sweet taste receptors” (Food Chemistry: Molecular Sciences, 2025).

Molecular target: T1, hTAS1R1 H308A/rTAS1R3 (Homo sapiens, UniProt Q7RTX1, H308A)
T1 construct: UniProtKB number Q7RTX1–1); expressed in transfected cells; host or cells: HEK293T/17 (ATCC CRL-11268)
T1 sequence (Q7RTX1 21-841 H308A): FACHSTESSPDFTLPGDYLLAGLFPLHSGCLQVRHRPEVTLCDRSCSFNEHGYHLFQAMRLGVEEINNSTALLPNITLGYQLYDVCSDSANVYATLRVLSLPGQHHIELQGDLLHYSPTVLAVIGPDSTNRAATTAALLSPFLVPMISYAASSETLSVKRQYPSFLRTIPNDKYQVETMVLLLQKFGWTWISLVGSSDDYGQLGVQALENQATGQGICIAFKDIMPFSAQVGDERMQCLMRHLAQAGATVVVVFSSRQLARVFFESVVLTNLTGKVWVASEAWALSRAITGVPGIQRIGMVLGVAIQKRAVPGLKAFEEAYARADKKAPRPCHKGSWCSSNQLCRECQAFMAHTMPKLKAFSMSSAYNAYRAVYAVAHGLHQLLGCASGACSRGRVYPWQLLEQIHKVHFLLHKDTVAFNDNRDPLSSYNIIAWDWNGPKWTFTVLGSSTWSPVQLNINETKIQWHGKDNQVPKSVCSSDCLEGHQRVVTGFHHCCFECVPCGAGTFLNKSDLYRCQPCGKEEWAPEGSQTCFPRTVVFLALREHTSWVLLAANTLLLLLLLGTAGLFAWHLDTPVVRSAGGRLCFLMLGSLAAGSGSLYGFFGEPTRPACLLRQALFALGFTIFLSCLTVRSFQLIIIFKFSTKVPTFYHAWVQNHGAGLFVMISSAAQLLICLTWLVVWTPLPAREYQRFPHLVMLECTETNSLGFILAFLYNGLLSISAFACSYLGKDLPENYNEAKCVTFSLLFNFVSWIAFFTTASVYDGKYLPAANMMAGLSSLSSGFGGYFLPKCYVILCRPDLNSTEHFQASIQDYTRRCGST
T1 sequence (Q923K1 21-858 partner): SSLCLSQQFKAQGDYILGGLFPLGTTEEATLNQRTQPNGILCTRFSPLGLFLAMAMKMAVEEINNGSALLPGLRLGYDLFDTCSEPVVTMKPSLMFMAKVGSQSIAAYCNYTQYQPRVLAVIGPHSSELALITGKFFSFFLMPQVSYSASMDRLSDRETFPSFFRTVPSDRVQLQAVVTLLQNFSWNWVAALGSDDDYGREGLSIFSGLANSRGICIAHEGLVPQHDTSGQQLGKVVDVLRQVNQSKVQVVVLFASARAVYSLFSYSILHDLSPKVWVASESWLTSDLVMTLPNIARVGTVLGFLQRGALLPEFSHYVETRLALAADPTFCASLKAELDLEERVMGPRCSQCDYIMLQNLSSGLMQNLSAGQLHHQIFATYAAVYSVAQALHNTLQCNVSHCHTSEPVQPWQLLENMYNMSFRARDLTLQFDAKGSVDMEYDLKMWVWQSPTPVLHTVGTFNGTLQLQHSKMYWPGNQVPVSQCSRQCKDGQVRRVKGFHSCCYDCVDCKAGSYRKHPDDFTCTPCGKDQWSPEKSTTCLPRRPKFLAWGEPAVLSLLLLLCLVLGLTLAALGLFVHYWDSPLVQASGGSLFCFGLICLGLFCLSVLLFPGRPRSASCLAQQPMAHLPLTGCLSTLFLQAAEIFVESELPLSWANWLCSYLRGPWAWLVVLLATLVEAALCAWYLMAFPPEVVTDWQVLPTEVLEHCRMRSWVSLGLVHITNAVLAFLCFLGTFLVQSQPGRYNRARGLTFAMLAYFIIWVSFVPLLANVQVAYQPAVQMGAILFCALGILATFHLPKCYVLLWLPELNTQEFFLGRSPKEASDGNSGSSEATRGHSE
Test: Calcium assay, hTAS1R1 mutant co-expressed with rTAS1R3
Type: cell-based, rat

| SMILES | EC50 | effect of the added compound (1 mM) on the response to L-Glu (H308A) | Max ∆F/F0 (H308A, GSH) | R1 = mutant EC50/WT EC50 (H308A, GSH) | response to the agonist alone, vs WT (H308A) |
| --- | --- | --- | --- | --- | --- |
| N[C@@H](CCC(=O)N[C@@H](CS)C(=O)NCC(=O)O)C(=O)O [GSH, γ-L-glutamyl-L-cysteinyl-glycine] | 3.25 ± 0.225 mM | synergy was observed | 0.42 ± 0.01 | 1.3 | – |
| CCCC(CCC)NC(=O)c1ccc2c(c1)OCO2 [S807, N-(heptan-4-yl)benzo[d][1,3]dioxole-5-carboxamide, reference compound] | – | – | – | – | strongly affected |
